Results as given in patent US20250353841A1 (BIOGEN MA INC., priority 2022, published 2025).

Each compound was assayed on mutant Huntington (HTT) protein (assay: HTT Mutant HTRF iPSC assay (mHTT protein lowering)). Conditions: human iPSC derived from a HTT patient with a poly-Q49 mutation.
Type: cell-based
For `Cc1cn2nc(-c3cc(F)c4nc(C5CCN(CC6CC6)CC5)nn4c3)cc(C)c2n1` [Compound 438, 2-(1-(cyclopropylmethyl)piperidin-4-yl)-6-(2,8-dimethylimidazo[1,2-b]pyridazin-6-yl)-8-fluoro-[1,2,4]triazolo[1,5-a]pyridine], the IC50 was 100 to 1000 nM.
Compound `COCCN1CCC(c2nc3c(F)cc(-c4cc(C)c5nc(C)cn5n4)cn3n2)CC1` [Compound 439, 6-(2,8-dimethylimidazo[1,2-b]pyridazin-6-yl)-8-fluoro-2-[1-(2-methoxyethyl)-4-piperidyl]-[1,2,4]triazolo[1,5-a]pyridine] has an IC50 of 100 to 1000 nM.
Compound `Cc1cn2nc(-c3cc(F)c4nc(CC5CNC5)nn4c3)cc(C)c2n1` [Compound 440, 2-(azetidin-3-ylmethyl)-6-(2,8-dimethylimidazo[1,2-b]pyridazin-6-yl)-8-fluoro-[1,2,4]triazolo[1,5-a]pyridine] has an IC50 of 100 to 1000 nM.
`Cc1cn2nc(-c3cc(F)c4nc(C5CCN(Cc6ncccn6)CC5)nn4c3)cc(C)c2n1` [Compound 441, 6-(2,8-dimethylimidazo[1,2-b]pyridazin-6-yl)-8-fluoro-2-(1-(pyrimidin-2-ylmethyl)piperidin-4-yl)-[1,2,4]triazolo[1,5-a]pyridine] showed an IC50 of 100 to 1000 nM.
Work on `Cc1cn2nc(-c3cc(F)c4nc(C5CC6(CNC6)C5)nn4c3)cc(C)c2n1` [Compound 442, 6-(2,8-dimethylimidazo[1,2-b]pyridazin-6-yl)-8-fluoro-2-(2-azaspiro[3.3]heptan-6-yl)-[1,2,4]triazolo[1,5-a]pyridine] yielded an IC50 of 100 to 1000 nM.
With `Cc1cn2nc(-c3cc(F)c4nc([C@H]5[C@@H]6CNC[C@@H]65)nn4c3)cc(C)c2n1` [Compound 443, 2-[(1R,5S)-3-azabicyclo[3.1.0]hexan-6-yl]-6-(2,8-dimethylimidazo[1,2-b]pyridazin-6-yl)-8-fluoro-[1,2,4]triazolo[1,5-a]pyridine] the IC50 was < 100 nM.
For `Cc1cn2nc(-c3cc(F)c4nc(C5CCN(CC6CCC6)CC5)nn4c3)cc(C)c2n1` [Compound 444, 2-(1-(cyclobutylmethyl)piperidin-4-yl)-6-(2,8-dimethylimidazo[1,2-b]pyridazin-6-yl)-8-fluoro-[1,2,4]triazolo[1,5-a]pyridine], the IC50 was 100 to 1000 nM.
Work on `Cc1cn2nc(-c3cc(F)c4nc(C5CCC(C)(C)NC5)nn4c3)cc(C)c2n1` (stereo not drawn) [Compound 445, 6-(2,8-dimethylimidazo[1,2-b]pyridazin-6-yl)-2-(6,6-dimethylpiperidin-3-yl)-8-fluoro-[1,2,4]triazolo[1,5-a]pyridine] yielded an IC50 of 100 to 1000 nM.
In the case of `Cc1cn2nc(-c3cc(F)c4nc(CC5CNCCO5)nn4c3)cc(C)c2n1` (stereo not drawn) [Compound 446, 2-((6-(2,8-dimethylimidazo[1,2-b]pyridazin-6-yl)-8-fluoro-[1,2,4]triazolo[1,5-a]pyridin-2-yl)methyl)morpholine], the IC50 is reported as 100 to 1000 nM.
Work on `Cc1cn2nc(-c3cc(F)c4nc(C5CCC(N(C)C)CC5)nn4c3)cc(C)c2n1` (stereo not drawn) [Compound 447, 4-(6-(2,8-dimethylimidazo[1,2-b]pyridazin-6-yl)-8-fluoro-[1,2,4]triazolo[1,5-a]pyridin-2-yl)-N,N-dimethylcyclohexan-1-amine] yielded an IC50 of 100 to 1000 nM.
`Cc1cn2nc(-c3cc(F)c4nc(CC5CCN(C)CC5)nn4c3)cc(C)c2n1` [Compound 448, 6-(2,8-dimethylimidazo[1,2-b]pyridazin-6-yl)-8-fluoro-2-((1-methylpiperidin-4-yl)methyl)-[1,2,4]triazolo[1,5-a]pyridine] was tested, and the IC50 was 100 to 1000 nM.
With `Cc1cn2nc(-c3cc(F)c4nc(C[C@H]5C[C@H](N)C5)nn4c3)cc(C)c2n1` [Compound 449, (1r,3r)-3-((6-(2,8-dimethylimidazo[1,2-b]pyridazin-6-yl)-8-fluoro-[1,2,4]triazolo[1,5-a]pyridin-2-yl)methyl)cyclobutan-1-amine] the IC50 was 100 to 1000 nM.
`Cc1cn2nc(-c3cc(F)c4nc(C[C@H]5C[C@@H](N)C5)nn4c3)cc(C)c2n1` [Compound 450, (1s,3s)-3-((6-(2,8-dimethylimidazo[1,2-b]pyridazin-6-yl)-8-fluoro-[1,2,4]triazolo[1,5-a]pyridin-2-yl)methyl)cyclobutan-1-amine] was tested, and the IC50 was 100 to 1000 nM.
Compound `Cc1cn2nc(-c3cc(F)c4nc([C@H]5CC[C@]6(CCNC6)CC5)nn4c3)cc(C)c2n1` [Compound 451, (5s,8s)-8-(6-(2,8-dimethylimidazo[1,2-b]pyridazin-6-yl)-8-fluoro-[1,2,4]triazolo[1,5-a]pyridin-2-yl)-2-azaspiro[4.5]decane] has an IC50 of 100 to 1000 nM.
For `Cc1cn2nc(-c3cc(F)c4nc([C@H]5CC[C@@]6(CCNC6)CC5)nn4c3)cc(C)c2n1` [Compound 452, (5r,8r)-8-(6-(2,8-dimethylimidazo[1,2-b]pyridazin-6-yl)-8-fluoro-[1,2,4]triazolo[1,5-a]pyridin-2-yl)-2-azaspiro[4.5]decane], the IC50 was 100 to 1000 nM.
In the case of `Cc1cn2nc(-c3cc(F)c4nc([C@H]5[C@@H]6CN(C)C[C@@H]65)nn4c3)cc(C)c2n1` [Compound 453, 6-(2,8-dimethylimidazo[1,2-b]pyridazin-6-yl)-8-fluoro-2-[(1S,5R)-3-methyl-3-azabicyclo[3.1.0]hexan-6-yl]-[1,2,4]triazolo[1,5-a]pyridine], the IC50 is reported as 100 to 1000 nM.
`Cc1cn2nc(-c3cc(F)c4nc(C5CCNC6(CC6)C5)nn4c3)cc(C)c2n1` (stereo not drawn) [Compound 454, 6-(2,8-dimethylimidazo[1,2-b]pyridazin-6-yl)-8-fluoro-2-(4-azaspiro[2.5]octan-7-yl)-[1,2,4]triazolo[1,5-a]pyridine] gave an IC50 of 100 to 1000 nM.
Compound `Cc1cn2nc(-c3cc(F)c4nc([C@H]5[C@@H]6CNC[C@@H]65)oc4c3)cc(C)c2n1` [Compound 455, 2-((1R,5S,6r)-3-azabicyclo[3.1.0]hexan-6-yl)-6-(2,8-dimethylimidazo[1,2-b]pyridazin-6-yl)-4-fluorobenzo[d]oxazole] has an IC50 of 100 to 1000 nM.
Compound `Cc1cn2nc(-c3cc(F)c4nc(C5CCN(C)CC5)oc4c3)cc(C)c2n1` [Compound 456, 6-(2,8-dimethylimidazo[1,2-b]pyridazin-6-yl)-4-fluoro-2-(1-methylpiperidin-4-yl)benzo[d]oxazole] has an IC50 of 100 to 1000 nM.
`Cc1cn2nc(-c3cc(F)c4nc(C5CC6(CCN(C)CC6)C5)oc4c3)cc(C)c2n1` [Compound 458, 6-(2,8-dimethylimidazo[1,2-b]pyridazin-6-yl)-4-fluoro-2-(7-methyl-7-azaspiro[3.5]nonan-2-yl)benzo[d]oxazole] was tested, and the IC50 was 100 to 1000 nM.
With `Cc1cn2nc(-c3cc(F)c4nc(CC5CCN(C)CC5)oc4c3)cc(C)c2n1` [Compound 459, 6-(2,8-dimethylimidazo[1,2-b]pyridazin-6-yl)-4-fluoro-2-((1-methylpiperidin-4-yl)methyl)benzo[d] oxazole] the IC50 was < 100 nM.
`Cc1cn2nc(-c3cc(F)c4nc(N5CC6CN(C)CC6C5)oc4c3)cc(C)c2n1` (stereo not drawn) [Compound 466, 6-(2,8-dimethylimidazo[1,2-b]pyridazin-6-yl)-4-fluoro-2-(5-methylhexahydropyrrolo [3,4-c]pyrrol-2(1H)-yl)benzo[d]oxazole] gave an IC50 of 100 to 1000 nM.
Compound `Cc1cn2nc(-c3cc(F)c4nc(N(C)C5CC(C)(C)NC(C)(C)C5)oc4c3)cc(C)c2n1` [Compound 467, 6-(2,8-dimethylimidazo[1,2-b]pyridazin-6-yl)-4-fluoro-N-methyl-N-(2,2,6,6-tetramethylpiperidin-4-yl)benzo[d]oxazol-2-amine] has an IC50 of 100 to 1000 nM.
In the case of `Cc1cn2nc(-c3cc(F)c4nc(N5CCC6(CCN(C)CC6)C5)oc4c3)cc(C)c2n1` [Compound 468, 6-(2,8-dimethylimidazo[1,2-b]pyridazin-6-yl)-4-fluoro-2-(8-methyl-2,8-diazaspiro[4.5]decan-2-yl)benzo[d]oxazole], the IC50 is reported as < 100 nM.
Compound `Cc1cn2nc(-c3cc(F)c4nc(N(C)C5CCN(C(C)C)CC5)oc4c3)cc(C)c2n1` [Compound 469, 6-(2,8-dimethylimidazo[1,2-b]pyridazin-6-yl)-4-fluoro-N-(1-isopropylpiperidin-4-yl)-N-methylbenzo[d]oxazol-2-amine] has an IC50 of 100 to 1000 nM.
With `Cc1cn2nc(-c3cc(F)c4nc(N5CCC6(CCN(C)C6)CC5)oc4c3)cc(C)c2n1` [Compound 470, 6-(2,8-dimethylimidazo[1,2-b]pyridazin-6-yl)-4-fluoro-2-(2-methyl-2,8-diazaspiro[4.5]decan-8-yl)benzo[d]oxazole] the IC50 was < 100 nM.
With `CCN1CCC(Nc2nc3c(F)cc(-c4cc(C)c5nc(C)cn5n4)cc3o2)CC1C` (stereo not drawn) [Compound 471, 6-(2,8-dimethylimidazo[1,2-b]pyridazin-6-yl)-N-(1-ethyl-2-methylpiperidin-4-yl)-4-fluorobenzo[d]oxazol-2-amine] the IC50 was < 100 nM.
`Cc1cn2nc(-c3cc(F)c4nc(N5CCC6(CN(C)C6)C5)oc4c3)cc(C)c2n1` [Compound 472, 6-(2,8-dimethylimidazo[1,2-b]pyridazin-6-yl)-4-fluoro-2-(2-methyl-2,6-diazaspiro[3.4]octan-6-yl)benzo[d]oxazole] was tested, and the IC50 was 100 to 1000 nM.
`Cc1cn2nc(-c3cc(F)c4nc(N(C)C5CCN(C)C(C)C5)oc4c3)cc(C)c2n1` (stereo not drawn) [Compound 473, 6-(2,8-dimethylimidazo[1,2-b]pyridazin-6-yl)-N-(1,2-dimethylpiperidin-4-yl)-4-fluoro-N-methylbenzo[d]oxazol-2-amine] gave an IC50 of 100 to 1000 nM.
`Cc1cn2nc(-c3cc(F)c4nc(N5CCC(C)(CN(C)C)C5)oc4c3)cc(C)c2n1` (stereo not drawn) [Compound 474, 1-(1-(6-(2,8-dimethylimidazo[1,2-b]pyridazin-6-yl)-4-fluorobenzo[d]oxazol-2-yl)-3-methylpyrrolidin-3-yl)-N,N-dimethylmethanamine] gave an IC50 of 100 to 1000 nM.
With `Cc1cn2nc(-c3cc(F)c4nc(N5CCC(N(C)C)CC5)oc4c3)cc(C)c2n1` [Compound 475, 1-(6-(2,8-dimethylimidazo[1,2-b]pyridazin-6-yl)-4-fluorobenzo[d]oxazol-2-yl)-N,N-dimethylpiperidin-4-amine] the IC50 was < 100 nM.
`Cc1cn2nc(-c3cc(F)c4nc(N5CCC(N6CCCC6)C5)oc4c3)cc(C)c2n1` (stereo not drawn) [Compound 476, 2-([1,3′-bipyrrolidin]-1′-yl)-6-(2,8-dimethylimidazo[1,2-b]pyridazin-6-yl)-4-fluorobenzo[d]oxazole] was tested, and the IC50 was 100 to 1000 nM.
`Cc1cn2nc(-c3cc(F)c4nc(N5CCC(N6CCCC6)CC5)oc4c3)cc(C)c2n1` [Compound 477, 6-(2,8-dimethylimidazo[1,2-b]pyridazin-6-yl)-4-fluoro-2-(4-(pyrrolidin-1-yl)piperidin-1-yl)benzo[d]oxazole] was tested, and the IC50 was 100 to 1000 nM.
